In patent publication US9580390B2, “Indazole compounds as kinase inhibitors and method of treating cancer with same” (University Health Network, priority 2011, dated 2017):
Where two headings read alike, the source gives them in different places.

Experiments:
[1] = molecular target: T1, human TTK (Homo sapiens, UniProt P33981); assay: TTK inhibition assay (indirect ELISA); type: biochemical
T1 construct: amino terminal GST fusion of full length human TTK; purchased Invitrogen
T1 sequence (P33981 1-857): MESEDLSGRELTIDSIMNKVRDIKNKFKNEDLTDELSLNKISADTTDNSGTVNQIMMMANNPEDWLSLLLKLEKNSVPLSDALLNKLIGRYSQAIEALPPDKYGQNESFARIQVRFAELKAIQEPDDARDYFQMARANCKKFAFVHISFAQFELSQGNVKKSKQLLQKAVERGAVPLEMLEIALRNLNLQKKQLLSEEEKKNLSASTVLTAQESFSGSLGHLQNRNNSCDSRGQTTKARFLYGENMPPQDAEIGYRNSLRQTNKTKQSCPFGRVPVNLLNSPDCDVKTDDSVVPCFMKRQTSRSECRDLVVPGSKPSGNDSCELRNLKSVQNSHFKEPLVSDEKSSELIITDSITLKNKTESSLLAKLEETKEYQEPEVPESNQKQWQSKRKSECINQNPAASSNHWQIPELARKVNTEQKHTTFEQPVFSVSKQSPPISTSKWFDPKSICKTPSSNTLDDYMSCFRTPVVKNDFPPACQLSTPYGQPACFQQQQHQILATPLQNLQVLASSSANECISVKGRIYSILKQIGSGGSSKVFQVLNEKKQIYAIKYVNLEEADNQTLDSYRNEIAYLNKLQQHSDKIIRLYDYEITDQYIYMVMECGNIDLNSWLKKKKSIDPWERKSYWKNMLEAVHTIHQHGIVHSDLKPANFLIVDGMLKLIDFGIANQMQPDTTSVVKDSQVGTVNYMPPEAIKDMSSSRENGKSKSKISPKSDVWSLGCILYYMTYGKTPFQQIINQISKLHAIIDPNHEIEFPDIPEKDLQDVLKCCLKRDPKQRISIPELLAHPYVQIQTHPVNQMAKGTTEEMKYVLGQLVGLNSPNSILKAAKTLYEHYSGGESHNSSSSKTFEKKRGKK

[2] = test system: colon cancer cells (HCT116); assay: Cancer cell line growth inhibition (SRB assay); type: cell-based; details: Homo sapiens, HCT-116, read-out: Cancer Cell Line GI50 Range HCT116
[3] = test system: ovarian cancer cells (PA-1); assay: Cancer cell line growth inhibition (SRB assay); type: cell-based; details: read-out: Cancer Cell Line GI50 Range PA-1
[4] = test system: TICs (Colon 12); assay: Colon tumor-initiating cell growth inhibition (Alamar Blue); type: cell-based; details: 216 h, 9 days, read-out: Tumor Initiating Cell GI50 Range Colon 12
[5] = test system: TICs (Ovarian 2393A); assay: Ovarian tumor-initiating cell growth inhibition (Alamar Blue); type: cell-based; details: 144 h, 6 days, read-out: Tumor Initiating Cell GI50 Range Ovarain 2393A
Text: Materials and Methods: Non-tissue or tissue cultured treated T-75 flask and 96-well plates were purchased from VWR. Vitamin B-27 supplement, MEM NEAA (minimum essential medium non essential amino acids), sodium pyruvate, L-glutamine, N2 supplement, penicillin-streptomycin and fungizone/amphotericin B were obtained from Invitrogen. Lipid mixture, heparin and EGF were purchased from Sigma; bFGF from BD Biosciences. Tumor Initiating Cells (TICs) from colon were routinely maintained using non-tissue cultured treated T-75 flasks in DMEM:F12 medium containing 0.2×B-27 supplement, 4 ug/ml heparin, 1×MEM NEAA, 1× sodium pyruvate, 1 mM glutamine, 10 pg/ul bFGF, 20 pg/ul EGF, 1×N2 supplement, lipid mixture, penicillin-streptomycin and fungizone/amphotericin B. Ovarian TICs were routinely maintained using tissue cultured treated T-75 flasks in DMEM:F12 medium containing 1×B-27 supplement, 4 ug/ml heparin, 20 pg/ul bFGF, 20 pg/ul EGF and penicillin-streptomycin.
Assay Protocol: Compounds described herein were dissolved in DMSO and further diluted in cell culture medium for GI50 determination. Colon TICs were trypsinized and seeded into non-tissue cultured treated 96-well plates with 4,000 cells/well. After 24 h, compound was added into the cell culture at different concentrations, and the final concentration of DMSO was adjusted to 0.1%. Cells were then cultured at 37° C. for 9 days. Ovarian TICs were trypsinized and seeded into tissue cultured treated 96-well plates with 1,000 cells/well. After 24 h, compound was added into the cell culture at different concentrations, and the final concentration of DMSO was adjusted to 0.1%. Cells were then cultured at 37° C. for 6 days. Cell viability was assessed by Alamar Blue assay: 10 ul of Alamar Blue was added into each well. After 4 hours incubation at 37° C., fluorescence was recorded at excitation 544 and emission 590. GI50 (Growth inhibition) was calculated using GraphPad Prism 4.0 software.

[6] = HCT116 colon cancer cells, SRB assay
[7] = PA-1 ovarian cancer cells, SRB assay

SMILES: O=C(N[C@H](c1ccccc1Cl)C1CC1)c1ccc2[nH]nc(-c3ccc(OC4CC5CCC(C4)N5C4COC4)cc3)c2c1 (stereo partly drawn) [Example A349, N-((S)-(2-chlorophenyl)(cyclopropyl)methyl)-3-(4-(((1R,3R,5S)-8-(oxetan-3-yl)-8-azabicyclo[3.2.1]octan-3-yl)oxy)phenyl)-1H-indazole-5-carboxamide]
- IC50 ([1]; read-out: TTK IC50 Range): < 100 nM
- GI50 [2]: < 100 nM
- GI50 ([3]; Homo sapiens, PA-1): < 100 nM
- GI50 ([4]; Colon 12 TICs): < 100 nM
- GI50 ([5]; Ovarian 2393A TICs): < 100 nM

SMILES: O=CN1C2CCC1CC(Oc1ccc(-c3n[nH]c4ccc(C(=O)N[C@H](c5ccccc5Cl)C5CC5)cc34)cc1)C2 (stereo partly drawn) [Example A350, N-((S)-(2-chlorophenyl)(cyclopropyl)methyl)-3-(4-(((1R,3R,5S)-8-formyl-8-azabicyclo[3.2.1]octan-3-yl)oxy)phenyl)-1H-indazole-5-carboxamide]
- IC50 ([1]; read-out: TTK IC50 Range): < 100 nM
- GI50 [2]: < 100 nM
- GI50 ([3]; Homo sapiens, PA-1): < 100 nM
- GI50 ([4]; Colon 12 TICs): < 100 nM
- GI50 ([5]; Ovarian 2393A TICs): < 100 nM

SMILES: O=C(N[C@H](c1ccccn1)C1CC1)c1ccc2[nH]nc(-c3ccc(N4C5CCC4CC(O)C5)cc3)c2c1 (stereo partly drawn) [Example A361, N-((S)-cyclopropyl(pyridin-2-yl)methyl)-3-(4-((1R,3S,5S)-3-hydroxy-8-azabicyclo[3.2.1]octan-8-yl)phenyl)-1H-indazole-5-carboxamide]
- IC50 [1]: < 100 nM
- GI50 [2]: < 100 nM
- GI50 ([3]; Homo sapiens, PA-1): < 100 nM
- GI50 ([4]; Colon 12 TICs): < 100 nM
- GI50 ([5]; Ovarian 2393A TICs): < 100 nM

SMILES: CC(C)[C@H](NC(=O)c1ccc2[nH]nc(-c3ccc(N4CCCN(C5COC5)CC4)cc3)c2c1)c1ccccc1Cl [Example A369, (S)-N-(1-(2-chlorophenyl)-2-methylpropyl)-3-(4-(4-(oxelan-3-yl)-1,4-diazepan-l-yl)phenyl)-1H-indazole-5-carboxamide]
- IC50 ([1]; read-out: TTK IC50 Range): < 100 nM
- GI50 [2]: < 100 nM
- GI50 ([3]; Homo sapiens, PA-1): < 100 nM
- GI50 ([4]; Colon 12 TICs): < 100 nM
- GI50 ([5]; Ovarian 2393A TICs): < 100 nM

SMILES: O=C(N[C@H](c1ccccn1)C1CC1)c1ccc2[nH]nc(-c3ccc(OC4CC5CCC(C4)N5)cc3)c2c1 (stereo partly drawn) [Example A374, 3-(4-((1R,3R,5S)-8-azabicyclo[3.2.1]octan-3-yloxy)phenyl)-N-((S)-cyclopropyl(pyridin-2-yl)methyl)-1H-indazole-5-carboxamide]
- IC50 ([1]; read-out: TTK IC50 Range): < 100 nM
- GI50 [2]: < 100 nM
- GI50 ([3]; Homo sapiens, PA-1): < 100 nM
- GI50 ([4]; Colon 12 TICs): > 500 nM
- GI50 ([5]; Ovarian 2393A TICs): 100 to 500 nM

SMILES: C[C@@H](O)C(=O)N1CCC(Oc2ccc(-c3n[nH]c4ccc(C(=O)N[C@H](c5ccccc5)C5CC5)cc34)cc2)CC1 [Example A379, N-((S)-cyclopropyl(phenyl)methyl)-3-(4-((1-((R)-2-hydroxypropanoyl)piperidin-4-yl)oxy)phenyl)-1H-indazole-5-carboxamide]
- IC50 ([1]; read-out: TTK IC50 Range): < 100 nM
- GI50 [2]: 100 to 500 nM
- GI50 ([3]; Homo sapiens, PA-1): 100 to 500 nM
- GI50 ([4]; Colon 12 TICs): < 100 nM
- GI50 ([5]; Ovarian 2393A TICs): 100 to 500 nM

SMILES: CN1[C@@H]2CC[C@H]1C[C@@H](Oc1ccc(-c3n[nH]c4ccc(C(=O)NC(c5ncccn5)C5CCCC5)cc34)cc1)C2 (stereo partly drawn) [Example A385, N-(cyclopentyl(pyrimidin-2-yl)methyl)-3-(4-(((1R,3R,5S)-8-methyl-8-azabicyclo[3.2.1]octan-3-yl)oxy)phenyl)-1H-indazole-5-carboxamide]
- IC50 ([1]; read-out: TTK IC50 Range): < 100 nM
- GI50 [2]: < 100 nM
- GI50 ([3]; Homo sapiens, PA-1): < 100 nM
- GI50 ([4]; Colon 12 TICs): 100 to 500 nM
- GI50 ([5]; Ovarian 2393A TICs): < 100 nM

SMILES: O=C(NC(c1ccccn1)C1CCCC1)c1ccc2[nH]nc(-c3ccc(N4CCN(C5COC5)CC4)cc3)c2c1 (centres unmarked) [Example A402, N-(cyclopentyl(pyridin-2-yl)methyl)-3-(4-(4-(oxetan-3-yl)piperazin-1-yl)phenyl)-1H-indazole-5-carboxamide]
- IC50 ([1]; read-out: TTK IC50 Range): < 100 nM
- GI50 [2]: < 100 nM
- GI50 ([3]; Homo sapiens, PA-1): < 100 nM
- GI50 ([4]; Colon 12 TICs): < 100 nM
- GI50 ([5]; Ovarian 2393A TICs): < 100 nM

SMILES: O=C(N[C@H](c1ccccn1)C1CCCC1)c1ccc2[nH]nc(-c3ccc(N4[C@@H]5CCC[C@H]4COC5)cc3)c2c1 [Example A418, 3-(4-((1R,5S)-3-oxa-9-azabicyclo[3.3.1]nonan-9-yl)phenyl)-N-((S)-cyclopentyl(pyridin-2-yl)methyl)-1H-indazole-5-carboxamide]
- IC50 [1]: < 100 nM
- GI50 [2]: < 100 nM
- GI50 ([3]; Homo sapiens, PA-1): < 100 nM
- GI50 ([4]; Colon 12 TICs): < 100 nM
- GI50 ([5]; Ovarian 2393A TICs): < 100 nM

SMILES: O=C(N[C@@H](c1ccccn1)C1CC1)c1ccc2[nH]nc(-c3ccc(N4[C@@H]5CC[C@H]4COC5)cc3)c2c1 [Example A422, 3-(4-((1R,5S)-3-oxa-8-azabicyclo[3.2.1]octan-8-yl)phenyl)-N-((R)-cyclopropyl(pyridin-2-yl)methyl)-1H-indazole-5-carboxamide]
- IC50 ([1]; read-out: TTK IC50 Range): < 100 nM
- GI50 [2]: < 100 nM
- GI50 ([3]; Homo sapiens, PA-1): < 100 nM
- GI50 ([4]; Colon 12 TICs): < 100 nM
- GI50 ([5]; Ovarian 2393A TICs): 100 to 500 nM

SMILES: O=C(NCC1(N2CCOCC2)CCCCC1)c1ccc2[nH]nc(-c3ccc(N4CCOCC4)cc3)c2c1 [Example A447, N-((1-morpholinocyclohexyl)methyl)-3-(4-morpholinophenyl)-1H-indazole-5-carboxamide]
- IC50 ([1]; read-out: TTK IC50 Range): < 100 nM
- GI50 [2, 6]: < 100 nM
- GI50 [3, 7]: < 100 nM
- GI50 ([4]; colon TICs, Alamar Blue): < 100 nM
- GI50 ([5]; ovarian TICs, Alamar Blue): < 100 nM

SMILES: CN1CCN(c2ccc(-c3n[nH]c4ccc(C(=O)NCC5(N6CCOCC6)CCCCC5)cc34)cc2)CC1 [Example A453, 3-(4-(4-methylpiperazin-1-yl)phenyl)-N-((1-morpholinocyclohexyl)methyl)-1H-indazole-5-carboxamide]
- IC50 ([1]; read-out: TTK IC50 Range): < 100 nM
- GI50 [2, 6]: < 100 nM
- GI50 [3, 7]: < 100 nM
- GI50 ([4]; colon TICs, Alamar Blue): < 100 nM
- GI50 ([5]; ovarian TICs, Alamar Blue): 100 to 500 nM

SMILES: CN1CC[C@@H](Oc2ccc(-c3n[nH]c4ccc(C(=O)NCC5(N6CCOCC6)CCCCC5)cc34)cc2)[C@@H](F)C1 [Example A455, 3-(4-(((3S,4R)-3-fluoro-1-methylpiperidin-4-yl)oxy)phenyl)-N-((1-morpholinocyclohexyl)methyl)-1H-indazole-5-carboxamide]
- IC50 ([1]; read-out: TTK IC50 Range): < 100 nM
- GI50 [2, 6]: < 100 nM
- GI50 [3, 7]: < 100 nM
- GI50 ([4]; colon TICs, Alamar Blue): 100 to 500 nM
- GI50 ([5]; ovarian TICs, Alamar Blue): 100 to 500 nM

SMILES: CN1CCC(Oc2ccc(-c3n[nH]c4ccc(C(=O)NCC5(c6cccnc6)CCCCC5)cc34)cc2)CC1 [Example A482, 3-(4-((1-methylpiperidin-4-yl)oxy)phenyl)-N-((1-(pyridin-3-yl)cyclohexyl)methyl)-1H-indazole-5-carboxamide]
- IC50 ([1]; read-out: TTK IC50 Range): < 100 nM
- GI50 [2, 6]: 100 to 500 nM
- GI50 [3, 7]: 100 to 500 nM
- GI50 ([4]; colon TICs, Alamar Blue): > 500 nM
- GI50 ([5]; ovarian TICs, Alamar Blue): > 500 nM

SMILES: O=C(NCC1(N2CCOCC2)CCCCC1)c1ccc2[nH]nc(-c3ccc(N4CCN(C5COC5)CC4)cc3)c2c1 [Example A500, N-((1-morpholinocyclohexyl)methyl)-3-(4-(4-(oxetan-3-yl)piperazin-1-yl)phenyl)-1H-indazole-5-carboxamide]
- IC50 ([1]; read-out: TTK IC50 Range): < 100 nM
- GI50 [2]: < 100 nM
- GI50 ([3]; Homo sapiens, PA-1): < 100 nM
- GI50 ([4]; Colon 12 TICs): < 100 nM
- GI50 ([5]; Ovarian 2393A TICs): < 100 nM

SMILES: O=CN1CCC(Oc2ccc(-c3n[nH]c4ccc(C(=O)NCC5(N6CCOCC6)CCCCC5)cc34)cc2)CC1 [Example A504, 3-(4-((1-formylpiperidin-4-yl)oxy)phenyl)-N-((1-morpholinocyclohexyl)methyl)-1H-indazole-5-carboxamide]
- IC50 ([1]; read-out: TTK IC50 Range): < 100 nM
- GI50 [2, 6]: < 100 nM
- GI50 [3, 7]: 100 to 500 nM
- GI50 ([4]; colon TICs, Alamar Blue): 100 to 500 nM
- GI50 ([5]; ovarian TICs, Alamar Blue): 100 to 500 nM
